Laboratory results: US20250171776A1, “NON-CANONICAL CELL-PENETRATING PEPTIDES FOR ANTISENSE OLIGOMER DELIVERY” (priority 2023, published 2025)
Like-named read-outs stand apart in the source and are kept apart here. Where no end group is shown, it is not given here. [ ]: non-standard residue; d: D form. 2Nal = N[C@@H](Cc1ccc2ccccc2c1)C(=O)O; Cit = NC(=O)NCCC[C@H](N)C(=O)O; Api = NC1(C(=O)O)CCNCC1; Dab = NCC[C@H](N)C(=O)O; Iph = iodophenylalanine

How the values were obtained:
[1] = test system: HeLa 654 cells; assay: HeLa 654 eGFP assay (flow cytometry, mean eGFP fluorescence, 22 h); format: cell-based; conditions: for PMO delivery (mean eGFP fluorescence relative to vehicle): 1 μM; for PMO delivery (mean eGFP fluorescence relative to vehicle) / PMO delivery at varying concentrations (mean eGFP fluorescence relative to vehicle) / PMO response (mean eGFP fluorescence relative to vehicle): 22 h; for PMO delivery: eGFP fluorescence relative to PMO alone: 20 μM, HeLa 654 cells, flow cytometry; for PMO delivery at varying concentrations (mean eGFP fluorescence relative to vehicle): 1, 2.5, 5, 10, 25 or 50 μM; for PMO response (mean eGFP fluorescence relative to vehicle): 2.5 μM, segment-CXP1 conjugates
Procedure: Purified constructs were then tested using an activity-based readout in which nuclear delivery results in fluorescence. Briefly, HeLa cells stably transfected with an Enhanced Green Fluorescent Protein (eGFP) gene interrupted by a mutated intron of β-globin (IVS2-654) produce a non-fluorescent eGFP protein. As used herein, Hela-654 cells refers to the Hela cells transfected with an Enhanced Green Fluorescent Protein (eGFP) gene interrupted by a mutated intron of β-globin (IVS2-654) and Hela-654 eGFP Assay is used to refer to an Assay that uses the Hela-654 cells. Successful delivery of PMO IVS2-654 to the nucleus results in corrective splicing and eGFP synthesis.
The amount of PMO delivered to the nucleus is therefore correlated with eGFP fluorescence, quantified by flow cytometry. Activity was reported as mean fluorescence intensity (MFI) relative to PMO alone. This activity assay provides indirect information on how much active PMO is delivered to the nucleus. Relative efficiency of a PMO-CPP conjugate was characterized by comparing activity to internal concentration.
[…] 18 h prior to treatment, the cells were plated at a density of 5,000 cells per well in a 96-well plate in DMEM supplemented with 10% FBS and 1% penicillin-streptomycin.
For individual peptide testing, PPMOs were dissolved in phosphate buffered saline (PBS) without Ca^2+ or Mg^2+ at a concentration of 1 mM (determined by UV absorbance of the PMO) before being diluted in Dulbecco's modified eagle medium (DMEM). Cells were incubated at the designated concentrations in triplicate for 22 h at 37° C. and 5% CO2. Next, the treatment media was removed, and the cells were washed once before being incubated with 0.25% Trypsin-EDTA for 15 min at 37° C. and 5% CO2. Lifted cells were transferred to a V-bottom 96-well plate and washed once with PBS, before being resuspended in PBS containing 2% FBS and 2 μg/mL propidium iodide (PI). Flow cytometry analysis was carried out on a BD LSRII flow cytometer. Gates were applied to the data to ensure that cells that were positive for propidium iodide or had forward/side scatter readings that were sufficiently different from the main cell population were excluded. Each sample was capped at 5,000 gated events.
Analysis was conducted using Graphpad Prism 7 and FlowJo. For each sample, the mean fluorescence intensity (MFI) and the number of gated cells were measured. To report activity, triplicate MFI values were averaged and normalized to the PMO alone condition.

[2] = test system: HELA-654 cells; assay: Hela-654 eGFP assay (incucyte imaging, GFP positive cells, 72 h); format: cell-based; conditions: 72 h, read-out: EC50 (at 72 h)
Procedure: HELA-654 cells were imaged at 72 hours with an incucyte and the number of GFP positive cells versus total cell counts were calculated with the incucyte image analysis software. Statistical analysis was conducted using a one-way analysis of variance (ANOVA) test with Dunnett's multiple comparison test. Bars represent mean±standard deviation (SD), with P<0.05 was considered to indicate statistical significance, (**** p<0.0001, *** […], ** p<0.01, * p<0.05).
HELA-654 cells were imaged at 72 hours with an incucyte and the number of GFP positive cells versus total cell counts were calculated with the incucyte image analysis software.

[3] = test system: eGFP-654 mice; assay: eGFP-654 mouse study: GFP fluorescence in tissue homogenates; format: in vivo; conditions: 20 mg/kg intravenous, tissues collected weekly for 8 weeks
Procedure: The tissues from a series of organs were homogenized and GFP fluorescence was measured with a spectrophotometer and normalized to tissue quantity (FIG. 9-17). Median effective dose (ED50) was also derived from the dose-response curve. PMO-CXP1 compound exposure was calculated with an enzyme-linked oligonucleotide hybridization assay (ELOHA). Briefly, the ELOHA assay is a two-step hybridization assay where the analyte is bound to both an immobilized capture probe and biotinylated detection probe. Streptavidin-AP-conjugate is added to the mixture and AttoPhos substrate is added to the system and incubated for 10 minutes. Stop solution is added and the plate is read on the spectrophotometer. The compound concentrations were determined from a standard curve. […] Compound efficacy and exposure were calculated in the quadriceps (FIGS. 9-10), heart (FIGS. 11-12), diaphragm (FIGS. 13-14), and kidney (FIGS. 15-16). The compound was also found to have efficacy for up to 56 days in vivo (FIG. 17).
PPMOs at 3 mg/kg were intravenously delivered to eGFP-654 mice. […] The tissues were homogenized and GFP fluorescence measurements were read for a fluorescence spectrophotometer and normalized to tissue quantity to measure efficacy (FIGS. 26-29). Compound efficacy and exposure were calculated in the quadriceps (FIG. 26), heart (FIG. 27), diaphragm (FIG. 28), and kidney (FIG. 29).

[4] = test system: HeLa 654 cells; assay: Lactate dehydrogenase (LDH) release assay in HeLa 654 cells; format: cell-based
Procedure: (§1) The media from the cells was analyzed for LDH release with an LDH assay and the percentage of LDH release was calculated relative to fully lysed cells.
(§2) Cytotoxicity assays were performed in HeLa 654 cells or TH-1 renal cells. TH-1 cells were maintained in DMEM supplemented with 10% (v/v) fetal bovine serum (FBS) and 1% (v/v) penicillin-streptomycin at 37° C. and 5% CO2H-1. Cells were plated at 5,000 cells/well in a 96-well plate 18-hours prior to treatment and treated with PMO-peptide compounds as described above. HeLa cell LDH assays were performed concurrently on the cells treated for Flow cytometry, so all plating and treatment protocols match those described above.
(§3) 17 hours after cell treatment, the Promega CytoTox lysis solution was added to 3 wells of each plate as a fully lysed control (100% LDH-release). 18 hours after treatment, cell supernatant was transferred to a new 96-well plate for analysis of LDH release. To each well of the 96-well plate containing supernatant was added CytoTox 96 Reagent (Promega). […] Equal volume of Stop Solution was added to each well, mixed, and the absorbance of each well was measured at 490 nm. The measurement of vehicle-treated cells was subtracted from each measurement, and % LDH release was calculated as % cytotoxicity=100×Experimental LDH Release (OD490)/Maximum LDH Release (OD490).

[5] = test system: TH-1 renal cells; assay: Lactate dehydrogenase (LDH) release assay in TH-1 renal cells; format: cell-based; conditions: LDH release at 18 hours
Procedure: as §1, §2, §3

[6] = chimeric peptide PMO conjugates

Lys-Thr-Ser-Iph-Gly-Arg-Lys-Gln-Lys-Thr-Ser-Iph-Gly-Arg-Lys-Trp-Lys-Lys (KTS[Iph]GRKQKTS[Iph]GRKWKK; not fully specified (N-terminus, C-terminus); printed as Lys-Thr-Ser-Iph-Gly-Arg-Lys-Gln-Lys-Thr-Ser-Iph-Gly-Arg-Lys-Trp-Lys-Lys; also: PMO IVS2-654 conjugate) [CXD1A]
PMO delivery (mean eGFP fluorescence relative to vehicle) [1]: high PMO delivery | EC50 [2, 6]: 3.35 µM

Lys-Gln-Lys-Thr-Ser-Iph-Gly-Arg-Gly-Pip-Lys-Trp-Lys-Lys (KQKTS[Iph]GRG[Api]KWKK-NH2; also: PMO conjugated via DBCO linker) [PMO-CXP1]
PMO delivery: eGFP fluorescence relative to PMO alone [1]: high levels of PMO delivery | PMO delivery at varying concentrations (mean eGFP fluorescence relative to vehicle) [1]: dose-dependent delivery of PMO | Duration of efficacy in vivo [3]: up to 56 days | EC50 [2]: 7.08 µM

Iph-Gly-Arg-Gly-Pip-Lys-Gln-Lys-Thr-Ser-Iph-Gly-Arg-Gly-Pip-Lys-Trp-Lys-Lys ([Iph]GRG[Api]KQKTS[Iph]GRG[Api]KWKK; also: PMO conjugate) [SA-CXP1]
PMO response (mean eGFP fluorescence relative to vehicle) [1]: highest PMO response compared to the other segment-CXP1 sequences | Toxicity: LDH release ([4]; 25 μM): toxicity closest to the parent CXP1-CXP1 peptide | EC50 [2, 6]: 1.57 µM

[Dab]VARNN[Dab]TKGKWKK [PMO-CXP3]
PMO delivery: eGFP fluorescence relative to PMO alone [1]: high levels of PMO delivery | PMO delivery at varying concentrations (mean eGFP fluorescence relative to vehicle) [1]: dose-dependent delivery of PMO | EC50 [2]: 13.8 µM

Cit-Met-Phe-Gly-Pip-Dab-Dab-Lys-Ala-Pro-Lys-Trp-Lys-Lys ([Cit]MFG[Api][Dab][Dab]KAPKWKK; also: PMO conjugate) [PMO-CXP4]
PMO delivery: eGFP fluorescence relative to PMO alone [1]: high levels of PMO delivery | PMO delivery at varying concentrations (mean eGFP fluorescence relative to vehicle) [1]: dose-dependent delivery of PMO | EC50 [2]: 4.57 µM

Lys-Gln-Lys-Thr-Ser-Iph-Gly-Arg-Lys-Trp-Lys-Gln-Lys-Thr-Ser-Iph-Gly-Arg-Lys-Trp-Lys-Lys (KQKTS[Iph]GRKWKQKTS[Iph]GRKWKK; not fully specified (N-terminus, C-terminus); printed as Lys-Gln-Lys-Thr-Ser-Iph-Gly-Arg-Lys-Trp-Lys-Gln-Lys-Thr-Ser-Iph-Gly-Arg-Lys-Trp-Lys-Lys; also: PMO IVS2-654 conjugate) [CXD1B]
PMO delivery (mean eGFP fluorescence relative to vehicle) [1]: high PMO delivery | Therapeutic window (HeLa-654 eGFP efficacy versus LDH release in TH-1 renal cells) [5]: wider therapeutic window in comparison to other PMO-peptide conjugates | Toxicity: LDH release ([4]; 50 μM): lower toxicity than the CXP1-CXP1 sequence | EC50 [2, 6]: 3.54 µM

Asn-Phe-Lys-Gln-Nap-His-Ala-Gly-Dab-Arg-Lys-Trp-Lys-Lys (NFKQ[2Nal]HAG[Dab]RKWKK; also: PMO conjugate) [PMO-CXP2]
PMO delivery: eGFP fluorescence relative to PMO alone [1]: high levels of PMO delivery | PMO delivery at varying concentrations (mean eGFP fluorescence relative to vehicle) [1]: dose-dependent delivery of PMO | EC50 [2]: 11.5 µM

Lys-Thr-Ser-Iph-Gly-Arg-Lys-Gln-Lys-Thr-Ser-Iph-Gly-Arg-Gly-Pip-Lys-Trp-Lys-Lys (KTS[Iph]GRKQKTS[Iph]GRG[Api]KWKK; not fully specified (C-terminus); printed as Lys-Thr-Ser-Iph-Gly-Arg-Lys-Gln-Lys-Thr-Ser-Iph-Gly-Arg-Gly-Pip-Lys-Trp-Lys-Lys; also: PMO conjugate) [SB-CXP1]
PMO response (mean eGFP fluorescence relative to vehicle) [1]: highest PMO response compared to the other segment-CXP1 sequences | EC50 [2, 6]: 2.08 µM
